According to the supplement of paper PMC10307832:

Experiments:
Experiment in all cases: relative viability (nuclei count vs DMSO), 5 days (fraction); higher = more cells survive
201T = test system: 201T
In short: (§1)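 Lung cancer cell lines, seeded in 1536-well plates, were treated the following day by pin tool with a single drug or with five library-drug doses (not always all listed) in √10 steps on top of a fixed anchor-drug dose. Cells were fixed and nuclei stained in one step after 5 days, and nuclei were counted. Relative viability is the nuclei count for treated wells divided by that for vehicle wells, reported as medians of duplicate plates.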

A-427 = test system: A-427
In short: as §1

COR-L 105 = test system: COR-L 105
In short: as §1

COR-L23 = test system: COR-L23
In short: as §1

EKVX = test system: EKVX
In short: as §1

HARA = test system: HARA
In short: as §1

HCC-15 = test system: HCC-15
In short: as §1

HCC-827 = test system: HCC-827
In short: as §1

LCLC-103H = test system: LCLC-103H
In short: as §1

LK-2 = test system: LK-2
In short: as §1

NCI-H1437 = test system: NCI-H1437
In short: as §1

COc1cc(N2CCC(C(N)=O)CC2)ccc1Nc1nc(N)c(Cl)c(Nc2ccccc2S(=O)(=O)C(C)C)n1 [HG-5-88-01] + COc1cc2c(Oc3ccc(NC(=O)C4(C(=O)Nc5ccc(F)cc5)CC4)cc3F)ccnc2cc1OCCCN1CCOCC1 [Foretinib] (partner 0.25 µM)
relative viability (201T; first compound 0.04 µM): 1.18 | relative viability (201T; first compound 0.1265 µM): 1.09 | relative viability (201T; first compound 0.4 µM): 1.12 | relative viability (201T; first compound 1.265 µM): 0.444 | relative viability (201T; first compound 4 µM): 1.02 | relative viability (A-427; first compound 0.04 µM): 1.13 | relative viability (A-427; first compound 0.1265 µM): 1.13 | relative viability (A-427; first compound 0.4 µM): 0.953 | relative viability (A-427; first compound 1.265 µM): 1.08 | relative viability (A-427; first compound 4 µM): 1.08 | relative viability (COR-L 105; first compound 0.04 µM): 1.05 | relative viability (COR-L 105; first compound 0.1265 µM): 1.11 | relative viability (COR-L 105; first compound 0.4 µM): 1.16 | relative viability (COR-L 105; first compound 1.265 µM): 0.969 | relative viability (COR-L 105; first compound 4 µM): 0.629 | relative viability (COR-L23; first compound 0.04 µM): 0.903 | relative viability (COR-L23; first compound 0.1265 µM): 0.995 | relative viability (COR-L23; first compound 0.4 µM): 0.99 | relative viability (COR-L23; first compound 1.265 µM): 0.768 | relative viability (COR-L23; first compound 4 µM): 0.805 | relative viability (EKVX; first compound 0.04 µM): 0.876 | relative viability (EKVX; first compound 0.1265 µM): 0.759 | relative viability (EKVX; first compound 0.4 µM): 0.305 | relative viability (EKVX; first compound 4 µM): 0.757 | relative viability (HARA; first compound 0.04 µM): 0.917 | relative viability (HARA; first compound 0.1265 µM): 0.878 | relative viability (HARA; first compound 0.4 µM): 0.875 | relative viability (HARA; first compound 1.265 µM): 0.733 | relative viability (HARA; first compound 4 µM): 0.694 | relative viability (HCC-15; first compound 0.04 µM): 1.02 | relative viability (HCC-15; first compound 0.1265 µM): 1.01 | relative viability (HCC-15; first compound 0.4 µM): 0.946 | relative viability (HCC-15; first compound 1.265 µM): 0.867 | relative viability (HCC-15; first compound 4 µM): 0.703 | relative viability (HCC-827; first compound 0.04 µM): 1.06 | relative viability (HCC-827; first compound 0.1265 µM): 1.12 | relative viability (HCC-827; first compound 0.4 µM): 1.05 | relative viability (HCC-827; first compound 1.265 µM): 0.965 | relative viability (HCC-827; first compound 4 µM): 0.579 | relative viability (LCLC-103H; first compound 0.04 µM): 0.767 | relative viability (LCLC-103H; first compound 0.1265 µM): 0.745 | relative viability (LCLC-103H; first compound 0.4 µM): 0.745 | relative viability (LCLC-103H; first compound 1.265 µM): 0.757 | relative viability (LCLC-103H; first compound 4 µM): 0.75 | relative viability (LK-2; first compound 0.04 µM): 1.13 | relative viability (LK-2; first compound 0.1265 µM): 1.39 | relative viability (LK-2; first compound 0.4 µM): 0.784 | relative viability (LK-2; first compound 1.265 µM): 0.99 | relative viability (LK-2; first compound 4 µM): 0.808 | relative viability (NCI-H1437; first compound 0.04 µM): 1.27 | relative viability (NCI-H1437; first compound 0.1265 µM): 1.28 | relative viability (NCI-H1437; first compound 0.4 µM): 0.912
